ChEMBL document CHEMBL6103637, “Additional Bioactive Silvestrol Analogs from the Roots of Aglaia perviridis Collected in Vietnam” (J Nat Prod, 2025)

Columns and labels:
Format in all cases: functional, cell-based
OVCAR-3 = test: Cytotoxicity against human OVCAR-3 cells assessed as inhibition of cell viability incubated for 72 hrs by CellTiter-blue cell viability assay; details: OVCAR-3, 72 h
HT-29 = test: Cytotoxicity against human HT-29 cells assessed as inhibition of cell viability incubated for 72 hrs by CellTiter-blue cell viability assay; details: HT-29, 72 h
MDA-MB-231 = test: Cytotoxicity against human MDA-MB-231 cells assessed as inhibition of cell viability incubated for 72 hrs by CellTiter-blue cell viability assay; details: MDA-MB-231, 72 h
MDA-MB-435 = test: Cytotoxicity against human MDA-MB-435 cells assessed as inhibition of cell viability incubated for 72 hrs by CellTiter-blue cell viability assay; details: MDA-MB-435, 72 h

COC(=O)[C@H]1[C@@H](O)[C@@]2(O)c3c(OC)cc(O[C@@H]4O[C@@H]([C@H](O)CO)CO[C@@H]4OC)cc3O[C@@]2(c2ccc(OC)cc2)[C@@H]1c1ccccc1 showed an IC50 (OVCAR-3) of 0.21 µM, an IC50 (HT-29) of 0.37 µM and an IC50 (MDA-MB-231) of 0.24 µM. It also gave an IC50 (MDA-MB-435) of 0.25 µM.

COC(=O)[C@H]1[C@@H](O)[C@@]2(O)c3c(OC)cc(O[C@@H]4O[C@@H]([C@@H](O)CO)CO[C@@H]4OC)cc3O[C@@]2(c2ccc(OC)cc2)[C@@H]1c1ccccc1 gave an IC50 (OVCAR-3) of 0.21 µM, an IC50 (HT-29) of 0.45 µM and an IC50 (MDA-MB-231) of 0.21 µM. The IC50 (MDA-MB-435) was 0.25 µM.

With COC(=O)[C@H]1[C@@H](O)[C@@]2(O)c3c(OC)cc(O[C@@H]4O[C@@H]([C@H]5COC(C)(C)O5)CO[C@H]4OC)cc3O[C@@]2(c2ccc(OC)cc2)[C@@H]1c1ccccc1 the IC50 (OVCAR-3) was 0.037 µM, the IC50 (HT-29) was 0.02 µM and the IC50 (MDA-MB-231) was 0.26 µM. The IC50 (MDA-MB-435) was 0.031 µM.

Compound COC(=O)[C@H]1[C@@H](O)[C@@]2(O)c3c(OC)cc(O[C@@H]4O[C@@H]([C@@H]5COC(C)(C)O5)CO[C@H]4OC)cc3O[C@@]2(c2ccc(OC)cc2)[C@@H]1c1ccccc1 has an IC50 (OVCAR-3) of 0.038 µM, an IC50 (HT-29) of 0.037 µM and an IC50 (MDA-MB-231) of 0.02 µM. The IC50 (MDA-MB-435) was 0.026 µM.

Compound COC(=O)[C@H]1[C@@H](O)[C@@]2(O)c3c(OC)cc(O[C@@H]4O[C@@H]([C@@H](O)CO)CO[C@H]4OC)cc3O[C@@]2(c2ccc(OC)cc2)[C@@H]1c1ccccc1 [2'-EPISILVESTROL] has an IC50 (OVCAR-3) of 0.002 µM, an IC50 (HT-29) of 0.003 µM and an IC50 (MDA-MB-231) of 0.002 µM. It also gave an IC50 (MDA-MB-435) of 0.002 µM.

With CC(=O)O[C@H]1C(=O)[C@@]2(C)[C@H]([C@H](OC(=O)c3ccccc3)[C@]3(O)C[C@H](OC(=O)[C@H](O)[C@@H](NC(=O)c4ccccc4)c4ccccc4)C(C)=C1C3(C)C)[C@]1(OC(C)=O)CO[C@@H]1C[C@@H]2O [PACLITAXEL] the IC50 (OVCAR-3) was 0.012 µM and the IC50 (MDA-MB-435) was 0.005 µM.

With COC(=O)[C@H]1[C@@H](O)[C@@]2(O)c3c(OC)cc(O[C@@H]4O[C@@H]([C@H](O)CO)CO[C@H]4OC)cc3O[C@@]2(c2ccc(OC)cc2)[C@@H]1c1ccccc1 [SILVESTROL] the IC50 (OVCAR-3) was 0.002 µM, the IC50 (HT-29) was 0.03 µM and the IC50 (MDA-MB-231) was 0.002 µM. It also gave an IC50 (MDA-MB-435) of 0.002 µM.
